Laboratory results published in ChEMBL document CHEMBL1157159, “Ester derivatives of gallic acid with potential toxicity toward L1210 leukemia cells” (Bioorg Med Chem, 2008).
The source made the active and inactive calls. No cut-off for these calls is given here.

Assays:
L1210 [1] = assay: Decrease in cytoplasmic glutathione level in mouse L1210 cells; type: functional, cell-based
L1210 [2] = assay: Decrease in cytoplasmic glutathione level in mouse L1210 cells at 100 uM; type: functional; parameters: scale not given: the % may be the effect or the level left
CCRF-CEM [3] = assay: Cytotoxicity against human CEM cells after 24 hrs by MTT assay; type: functional, cell-based
L1210 [4] = assay: Decrease in mitochondrial glutathione level in mouse L1210 cells; type: functional, cell-based
Vero = assay: Cytotoxicity against african green monkey VERO cells; type: cell-based; details: Chlorocebus sabaeus
CCRF-CEM [5] = assay: Induction of apoptosis in human CEM cells assessed as internucleosomal breakdown of DNA chromatin at 100 uM; type: functional, cell-based
L1210 [6] = assay: Cytotoxicity against mouse L1210 cells after 72 hrs by MTT assay; type: functional, cell-based; details: L1210, 72 h
CCRF-CEM [7] = assay: Induction of apoptosis in human CEM cells assessed as internucleosomal breakdown of DNA chromatin at 30 uM; type: functional, cell-based
L1210 [8] = assay: Induction of apoptosis in mouse L1210 cells assessed as internucleosomal breakdown of DNA chromatin at 100 uM; type: functional, cell-based
L1210 [9] = assay: Induction of apoptosis in mouse L1210 cells assessed as internucleosomal breakdown of DNA chromatin at 30 uM; type: functional, cell-based
L1210 [10] = assay: Cytotoxicity against mouse L1210 cells after 48 hrs by MTT assay; type: functional, cell-based; details: L1210, 48 h
[11] = Genotoxicity against african green monkey VERO cells; type: toxicity, cell-based; details: African green monkey (Chlorocebus sabaeus)
CCRF-CEM [12] = assay: Cytotoxicity against human CEM cells after 72 hrs by MTT assay; type: functional, cell-based

SMILES: O=C(O)c1cc(O)c(O)c(O)c1 [GALLIC ACID]
- Activity (L1210 [1]): Active
- Activity (L1210 [2]): 75%
- IC50 (CCRF-CEM [3]): > 50 µM
- Activity (L1210 [4]): Active
- IC50 (Vero): > 1 µM
- Activity (CCRF-CEM [5]): Active
- IC50 (L1210 [6]): 50 µM
- Activity (CCRF-CEM [7]): Active
- Activity (L1210 [8]): Active
- Activity (L1210 [9]): Active
- IC50 (L1210 [10]): > 50 µM
- IC50 [11]: > 299 µM
- IC50 (CCRF-CEM [12]): > 50 µM
